Measured values from patent US20020081661A1 (Synaptic Pharmaceutical Corporation, priority 1992, published 2002).
Like-named read-outs stand apart in the source and are kept apart here.

Assays:
[1] = target: T1, rat 5-HT4 (CG-7) receptor (Rattus norvegicus, UniProt Q62758); assay: cAMP formation in intact Cos-7 cells transiently expressing CG-7; assay type: cell-based
T1 construct: two individual full length cDNA clones, S10-87 and S10-95, were isolated; expressed in transfected cells; host or cells: COS-7 (transient, DEAE-dextran)
T1 sequence (Q62758 1-387 isoform Q62758-2): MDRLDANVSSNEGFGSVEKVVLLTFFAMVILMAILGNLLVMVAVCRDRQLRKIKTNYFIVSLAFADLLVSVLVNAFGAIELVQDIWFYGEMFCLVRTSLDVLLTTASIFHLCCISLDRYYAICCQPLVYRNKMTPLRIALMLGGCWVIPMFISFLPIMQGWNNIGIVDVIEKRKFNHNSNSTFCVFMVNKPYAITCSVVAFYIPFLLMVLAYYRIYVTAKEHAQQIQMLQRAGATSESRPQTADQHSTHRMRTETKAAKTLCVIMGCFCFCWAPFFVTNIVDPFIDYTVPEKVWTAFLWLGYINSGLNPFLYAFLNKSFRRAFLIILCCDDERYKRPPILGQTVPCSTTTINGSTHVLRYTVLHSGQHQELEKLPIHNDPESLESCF
Protocol: (§1) Measurement of cAMP Formation: The transiently transfected Cos-7 cells were incubated in Dulbecco's modified Eagle's medium, 5 mM theophylline, 10 mM Hepes (4-[2-Hydroxyethyl]-1-piperazineethanesulfonic acid), 10 μM pargyline, and/or appropriate concentrations of antagonists for 20 minutes at 37° C., 5% CO2. […] The media was aspirated and the reaction stopped by the addition of 100 mM HCl. The plates were stored at 4° C. for 15 minutes, centrifuged for 5 minutes, 500×g to pellet cellular debris, and the supernatant aliquotted and stored at −20° C. prior to assessment of cAMP formation by radioimmunoassay (cAMP Radioimmunoassay kit, Advanced Magnetics, Cambridge, Mass.). Radioactivity was quantitated using a Packard COBRA Auto Gamma Counter equipped with data reduction software. Functional data was fitted to a four parameter logistic equation to obtain response parameters (EC50, Emax, nH; Inplot, GraphPad, San Diego, Calif.).

[2] = target: T2, rat 5-HT4 receptor S10-95 (CG-8) (Rattus norvegicus, UniProt Q62758); assay: [3H]GR113808 binding (saturation and displacement), COS-7 membranes, rat clone CG-8; parameters: two individual full length cDNA clones, S10-87 and S10-95, were isolated; expressed in transfected cells; host or cells: COS-7 (transient, DEAE-dextran)
T2 sequence (Q62758 whole entry): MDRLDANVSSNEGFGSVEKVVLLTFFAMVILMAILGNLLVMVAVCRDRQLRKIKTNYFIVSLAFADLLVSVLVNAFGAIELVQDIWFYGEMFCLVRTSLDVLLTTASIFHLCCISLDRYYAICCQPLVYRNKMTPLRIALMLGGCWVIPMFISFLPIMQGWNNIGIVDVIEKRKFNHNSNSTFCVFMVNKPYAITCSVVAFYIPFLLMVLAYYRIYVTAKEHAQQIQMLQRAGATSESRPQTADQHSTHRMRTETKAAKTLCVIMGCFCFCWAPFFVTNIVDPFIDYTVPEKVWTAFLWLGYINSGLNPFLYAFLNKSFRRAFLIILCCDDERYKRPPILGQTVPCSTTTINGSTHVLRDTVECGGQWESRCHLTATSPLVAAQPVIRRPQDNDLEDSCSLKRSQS
Protocol: (§2) Membrane Preparation: Membranes were prepared from transiently transfected COS-7 cells which were grown to 100% confluence. The cells were washed twice with phosphate-buffered saline, scraped from the culture dishes into 5 ml of ice-cold phosphate-buffered saline, and centrifuged at 200×g for 5 min at 4′. The pellet was resuspended in 2.5 ml of ice-cold Tris buffer (20 mM Tris -HCl, pH 7.4 at 23°, 5 mM EDTA), and homogenized by a Wheaton tissue grinder. The lysate was subsequently centrifuged at 200×g for 5 min at 4° to pellet large fragments which were discarded. The supernatant was collected and centrifuged at 40,000×g for 20 min at 4°. The pellet resulting from this centrifugation was washed once in ice-cold Tris wash buffer and finally resuspended in a final buffer containing 50 mM Tris-HCl and 0.5 mM EDTA, pH 7.4 at 23°. Membrane preparations were kept on ice and utilized within two hr for the radioligand binding assays.
(§3) The binding profile of drugs in competition experiments was established using 10-12 concentrations of compound. Incubation times were 30 min for both saturation and displacement studies.

[3] = target: T3, rat 5-HT4 receptor S10-87 (CG-7) (Rattus norvegicus, UniProt Q62758); assay: [3H]GR113808 binding (saturation and displacement), COS-7 membranes, rat clone CG-7; parameters: two individual full length cDNA clones, S10-87 and S10-95, were isolated; expressed in transfected cells; host or cells: COS-7 (transient, DEAE-dextran)
T3 sequence (Q62758 1-387 isoform Q62758-2): as the sequence (Q62758 1-387 isoform Q62758-2) above
Protocol: as §2, §3

[4] = target: T3, rat 5-HT4 receptor S10-87 (CG-7); assay: [3H]5-HT radioligand binding (saturation and displacement), membranes of Cos-7 cells transiently expressing rat S10-87 (CG-7)
Protocol: as §2
(§4) The binding profile of drugs in competition experiments was established using 7 concentrations of compound. Incubation times were 30 min for both saturation and displacement studies. […] Binding was initiated by the addition of 50 μl membrane homogenates (10-20 μg). The reaction was terminated by rapid filtration through presoaked (0.5% polyethyleneimine) filters using 48R Cell Brandel Harvester (Gaithersburg, Md.). Subsequently, filters were washed for 5 sec with ice cold buffer (50 mM Tris HCL, pH 7.4 at 4° C.), dried and placed into vials containing 2.5 ml of Readi-Safe (Beckman, Fullerton, Calif.), and radioactivity was measured using a Beckman LS 6500C liquid scintillation counter. […] Binding data were analyzed by computer-assisted nonlinear regression analysis (Accufit and Accucomp, Lundon Software, Chagrin Falls, Ohio).

[5] = target: T2, rat 5-HT4 receptor S10-95 (CG-8); assay: [3H]5-HT radioligand binding (displacement), membranes of Cos-7 cells transiently expressing rat S10-95 (CG-8); conditions: read-out: K1; CG-8, binding data using [3H]5-HT, Table 4
Protocol: (§5) For transient expression, Cos-7 cells were transfected by the DEAE-Dextran method, using 1 μg of DNA /10^6 cells (Warden, D. and H. V. Thorne, 1968).
(§6) Membrane Preparation: Membranes were prepared from transiently transfected COS-7 cells which were grown to 100% confluence. The cells were washed twice with phosphate-buffered saline, scraped from the culture dishes into 5 ml of ice-cold phosphate-buffered saline, and centrifuged at 200×g for 5 min at 4′. The pellet was resuspended in 2.5 ml of ice-cold Tris buffer (20 mM Tris -HCl, pH 7.4 at 23°, 5 mM EDTA), and homogenized by a Wheaton tissue grinder. The lysate was subsequently centrifuged at 200×g for 5 min at 4° to pellet large fragments which were discarded. The supernatant was collected and centrifuged at 40,000×g for 20 min at 4°. The pellet resulting from this centrifugation was washed once in ice-cold Tris wash buffer and finally resuspended in a final buffer containing 50 mM Tris-HCl and 0.5 mM EDTA, pH 7.4 at 23°. Membrane preparations were kept on ice and utilized within two hr for the radioligand binding assays. Protein concentrations were determined by the method of Bradford (1976) using bovine serum albumin as the standard.
(§7) The binding profile of drugs in competition experiments was established using 7 concentrations of compound. Incubation times were 30 min for both saturation and displacement studies. […] Binding was initiated by the addition of 50 μl membrane homogenates (10-20 μg). The reaction was terminated by rapid filtration through presoaked (0.5% polyethyleneimine) filters using 48R Cell Brandel Harvester (Gaithersburg, Md.). Subsequently, filters were washed for 5 sec with ice cold buffer (50 mM Tris HCL, pH 7.4 at 4° C.), dried and placed into vials containing 2.5 ml of Readi-Safe (Beckman, Fullerton, Calif.), and radioactivity was measured using a Beckman LS 6500C liquid scintillation counter. […] Binding data were analyzed by computer-assisted nonlinear regression analysis (Accufit and Accucomp, Lundon Software, Chagrin Falls, Ohio). […]

[6] = target: T4, rat 5-HT4 (CG-8) receptor (Rattus norvegicus, UniProt Q62758); assay: cAMP formation in intact Cos-7 cells transiently expressing CG-8; assay type: cell-based
T4 construct: two individual full length cDNA clones, S10-87 and S10-95, were isolated; expressed in transfected cells; host or cells: COS-7 (transient, DEAE-dextran)
T4 sequence (Q62758 whole entry): as the sequence (Q62758 whole entry) above
Protocol: as §1

[7] = target: T5, human 5-HT4 receptor S10-95 (CG-17) (Homo sapiens, UniProt Q13639); assay: [3H]5-HT displacement binding, human CG-17 clone
T5 construct: Isolation of the full length human S10-95 cDNA clone; expressed in transfected cells; host or cells: COS-7 (transient, DEAE-dextran)
T5 sequence (Q13639 whole entry): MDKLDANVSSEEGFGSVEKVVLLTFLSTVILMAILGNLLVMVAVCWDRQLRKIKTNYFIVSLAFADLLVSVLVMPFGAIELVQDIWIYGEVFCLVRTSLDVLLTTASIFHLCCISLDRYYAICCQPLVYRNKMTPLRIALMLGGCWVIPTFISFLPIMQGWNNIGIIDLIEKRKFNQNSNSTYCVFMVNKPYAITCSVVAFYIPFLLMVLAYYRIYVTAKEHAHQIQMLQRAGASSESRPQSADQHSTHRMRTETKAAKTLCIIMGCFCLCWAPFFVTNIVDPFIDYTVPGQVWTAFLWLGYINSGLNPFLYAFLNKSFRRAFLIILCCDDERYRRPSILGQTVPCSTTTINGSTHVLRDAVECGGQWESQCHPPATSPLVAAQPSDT
Protocol: as §2, §4

[8] = target: T2, rat 5-HT4 receptor S10-95 (CG-8)
Protocol: as §5, §6, §7

For COc1cc(N)c(Cl)cc1C(=O)NC1CN2CCC1CC2 (stereo not drawn) [Zacopride, zacopride], the “agonist / antagonist character” value ([1]; CG-7, cAMP response) was “partial agonists”, the “I. A. (intrinsic activity)” value ([1]; CG-7, maximum response normalized to 5-HT maximum = 1.0) was 1.1 and the “fold lower affinity than cisapride” value ([1]; CG-7, stimulation of adenylate cyclase) was about 15 fold. For the same compound, the “times less potent than 5-HT” value ([1]; CG-7, stimulation of basal cAMP release) was about 100 fold, the EC50 ([1]; CG-7, stimulation of basal cAMP release, means ± S.E.M. of three experiments, read-out: EC50) was 2740 nM and the Ki ([2]; CG-8, 0.2-0.4 nM [3H]GR113808, single experiment, read-out: Affinity estimate K1) was 820 nM. For the same compound, the “nH (Hill coefficient)” value ([2]; CG-8, [3H]GR113808) was “nH = 0.85”, the Ki ([3]; CG-7, 0.2-0.4 nM [3H]GR113808, single experiment, read-out: Affinity estimate K1) was 729 nM and the “BH (percentage of high affinity sites)” value ([3]; CG-7, [3H]GR113808) was 68%. The “nH (Hill coefficient)” value ([3]; CG-7, [3H]GR113808) was “nH = 0.80”, the Ki ([3]; CG-7, [3H]GR113808, read-out: KH (affinity for the high affinity state)) was 424 nM and the Ki ([3]; CG-7, [3H]GR113808, read-out: KL (affinity for the low affinity state)) was 2760 nM. The Ki [4] was 130 ± 10 nM, the Ki ([4]; K1 (nM), CG-7, binding data using [3H]5-HT, Table 4) was 130 ± 10 nM and the Ki [5] was 136 ± 5 nM. The “agonist / antagonist character” value ([6]; CG-8, cAMP response) was “partial agonists”, the “I. A. (intrinsic activity)” value ([6]; CG-8, maximum response normalized to 5-HT maximum = 1.0) was 1.0 and the EC50 ([6]; CG-8, stimulation of basal cAMP release, means ± S.E.M. of three experiments, read-out: EC50) was 239 ± 33 nM. The “fold higher affinity for the human CG-17 clone” value ([7]; human CG-17 compared with rat clones) was “about 7 fold”, the Ki ([7]; read-out: Ki) was 17 nM and the Ki [8] was 136 ± 5 nM.
